Columns and labels:
[1] = biological target: T1, human acetyl-CoA carboxylase 2 (ACC2) (Homo sapiens, UniProt O00763); assay: Acetyl-CoA carboxylase enzyme assay (malonyl-CoA formation by LC/MS/MS); format: biochemical; conditions: recombinant human ACC2 (aa 144-2458); read-out: IC50 ACC2
T1 construct: The cDNA encoding amino acids 144 to 2458 of human acetyl-CoA carboxylase 2; made in house; host or cells: Sf9 insect cells (baculovirus, pFastBac1)
In short: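 Malonyl-CoA formation was read by LC/MS/MS MRM against a [13C3]-malonyl-CoA internal standard, after acetic acid quench. The enzyme was baculovirus/Sf9-expressed human ACC2 residues 144–2458, given 15 minutes room-temperature compound preincubation in HEPES pH 7.5 buffer with MgCl2, citrate and DTT. Substrate solution held 50 μM acetyl-CoA, 120 μM ATP and 2 mM KHCO3.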

[2] = system: HCVcc genotype 2a (JFH-1 strain) virus; assay: HCV assay: JFH-1 rLuc infection of Huh 7.5 cells, renilla luciferase readout; format: cell-based; conditions: Hepatitis C virus, Huh7.5; JFH-1 rLuc virus, MOI=0.01, Huh 7.5 cells, 72 hours, luciferase activity reduced by 50%
Procedure: (§1) The effect of compounds on HCV infection was determined in vitro using cell cultured (HCVcc) genotype 2a (JFH-1 strain) virus. A renilla luciferase reporter gene was inserted in the viral genome, the expression of which was under the control of HCV 5′UTR (JFH-1^rLuc). Thus, the inhibition of HCV infection or replication can be indirectly measured by the reduction of luciferase activity in the cells. A specifically adapted hepatoma cell line, Huh 7.5, which allowed higher infectivity of HCV in vitro, was cultured in Dulbecco's modified Eagle's medium (DMEM) supplemented with 2 mM L-glutamine, 0.1 mM non-essential amino acids and 10% heat-inactivated fetal bovine serum. The cells were infected with JFH-1^rLuc virus at an MOI=0.01 and were treated at the same time with serially diluted compounds. After 72 hours, luciferase activities in compound-treated cells were measured using the Renilla Luciferase Assay System (Promega) and were compared to those in untreated control cells. Concentration-dependent inhibition curves were generated, from which EC50 values, the concentrations of compounds at which luciferase activities were reduced by 50% relative to untreated control, were calculated. In parallel, cytotoxicity of compounds was determine by measuring the viability of compound-treated cells using CellTiter 96® AQueous One Solution Cell Proliferation Assay (Promega). CC50 represented the concentration of the compound at which cell viability was reduced by 50% compared to untreated control.

in vitro = format: cell-based; conditions: human
Procedure: as §1

T1 sequence (O00763 144-2458): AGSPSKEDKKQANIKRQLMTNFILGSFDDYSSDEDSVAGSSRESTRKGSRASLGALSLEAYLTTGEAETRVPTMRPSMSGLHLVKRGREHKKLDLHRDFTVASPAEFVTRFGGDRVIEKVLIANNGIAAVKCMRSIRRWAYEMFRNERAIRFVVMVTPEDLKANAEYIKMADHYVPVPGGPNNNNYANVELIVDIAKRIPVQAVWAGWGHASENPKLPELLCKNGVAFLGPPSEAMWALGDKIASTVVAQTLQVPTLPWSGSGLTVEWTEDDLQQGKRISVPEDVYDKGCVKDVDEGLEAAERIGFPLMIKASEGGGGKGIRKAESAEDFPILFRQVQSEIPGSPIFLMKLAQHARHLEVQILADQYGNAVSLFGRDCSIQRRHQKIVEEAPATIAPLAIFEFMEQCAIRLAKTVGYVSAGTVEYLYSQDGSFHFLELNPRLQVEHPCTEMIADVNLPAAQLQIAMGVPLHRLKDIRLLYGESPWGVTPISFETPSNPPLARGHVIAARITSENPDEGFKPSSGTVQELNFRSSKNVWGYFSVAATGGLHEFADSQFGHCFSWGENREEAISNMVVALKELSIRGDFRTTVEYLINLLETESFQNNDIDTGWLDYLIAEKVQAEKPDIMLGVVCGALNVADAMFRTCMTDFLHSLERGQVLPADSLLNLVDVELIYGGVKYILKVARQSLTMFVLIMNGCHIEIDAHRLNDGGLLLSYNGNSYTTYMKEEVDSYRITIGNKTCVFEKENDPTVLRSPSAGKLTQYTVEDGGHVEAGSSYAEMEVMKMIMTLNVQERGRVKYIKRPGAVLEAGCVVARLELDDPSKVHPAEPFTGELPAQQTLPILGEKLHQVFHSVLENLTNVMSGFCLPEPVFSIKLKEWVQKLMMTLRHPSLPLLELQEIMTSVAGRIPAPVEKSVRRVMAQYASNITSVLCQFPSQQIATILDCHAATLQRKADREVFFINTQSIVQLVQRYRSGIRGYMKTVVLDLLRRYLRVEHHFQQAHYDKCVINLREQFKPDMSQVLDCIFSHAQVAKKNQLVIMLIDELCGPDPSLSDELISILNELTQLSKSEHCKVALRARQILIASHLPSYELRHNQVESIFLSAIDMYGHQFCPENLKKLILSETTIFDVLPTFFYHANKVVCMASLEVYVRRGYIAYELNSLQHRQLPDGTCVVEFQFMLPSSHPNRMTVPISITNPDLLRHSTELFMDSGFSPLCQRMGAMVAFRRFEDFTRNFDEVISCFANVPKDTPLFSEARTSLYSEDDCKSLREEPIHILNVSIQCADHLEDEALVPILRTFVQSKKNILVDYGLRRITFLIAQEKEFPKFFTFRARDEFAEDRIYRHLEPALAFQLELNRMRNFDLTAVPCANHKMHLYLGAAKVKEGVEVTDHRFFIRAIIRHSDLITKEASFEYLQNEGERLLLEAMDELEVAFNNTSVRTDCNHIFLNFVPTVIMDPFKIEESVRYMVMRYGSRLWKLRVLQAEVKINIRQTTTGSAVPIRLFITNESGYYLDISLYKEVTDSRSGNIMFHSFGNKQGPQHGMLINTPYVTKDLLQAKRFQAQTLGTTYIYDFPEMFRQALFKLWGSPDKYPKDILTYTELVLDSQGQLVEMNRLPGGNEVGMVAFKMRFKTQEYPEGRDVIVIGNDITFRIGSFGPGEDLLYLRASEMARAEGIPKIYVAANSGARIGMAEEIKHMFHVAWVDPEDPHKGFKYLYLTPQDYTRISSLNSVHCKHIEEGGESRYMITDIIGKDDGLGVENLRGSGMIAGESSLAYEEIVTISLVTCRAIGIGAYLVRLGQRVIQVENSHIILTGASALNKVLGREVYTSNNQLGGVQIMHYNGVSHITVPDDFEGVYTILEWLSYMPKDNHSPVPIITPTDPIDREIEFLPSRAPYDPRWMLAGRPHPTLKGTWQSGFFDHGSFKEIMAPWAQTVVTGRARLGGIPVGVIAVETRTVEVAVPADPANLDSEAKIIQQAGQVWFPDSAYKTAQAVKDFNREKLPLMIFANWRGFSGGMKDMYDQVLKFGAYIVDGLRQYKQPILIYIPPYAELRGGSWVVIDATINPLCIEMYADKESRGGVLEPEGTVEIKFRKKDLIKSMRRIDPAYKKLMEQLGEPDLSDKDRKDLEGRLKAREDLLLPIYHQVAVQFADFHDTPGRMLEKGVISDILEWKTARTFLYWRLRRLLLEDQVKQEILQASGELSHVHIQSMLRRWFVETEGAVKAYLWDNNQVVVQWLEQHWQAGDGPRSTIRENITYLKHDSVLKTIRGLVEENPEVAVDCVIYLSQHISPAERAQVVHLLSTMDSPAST

| SMILES | IC50 [1] | EC50 [2] | CC50 at 72 h (in vitro) |
| --- | --- | --- | --- |
| COCCc1ccc(-c2cc3ccc(S(=O)(=O)N[C@H]4CC[C@H](C(=O)N5CCOC[C@@H]5C)CC4)cc3[nH]2)cc1 [Example 30, 2-(4-(2-methoxyethyl)phenyl)-N-((1S,4r)-4-((S)-3-methylmorpholine-4-carbonyl)cyclohexyl)-1H-indole-6-sulfonamide] | 10 nM | 710 nM | > 33000 nM |
| Cn1c(-c2ccccc2)cc2ccc(S(=O)(=O)N[C@H]3CC[C@H](C(=O)N4CCOC[C@@H]4C4CC4)CC3)cc21 [Example 479, N-((1S,4r)-4-((S)-3-cyclopropylmorpholine-4-carbonyl)cyclohexyl)-1-methyl-2-phenyl-1H-indole-6-sulfonamide] | 10 nM | 1270 nM | > 33000 nM |
| COC(=O)CCc1ccc(-c2cc3ccc(S(=O)(=O)N[C@H]4CC[C@H](C(=O)N5CCOC[C@@H]5C5CC5)CC4)cc3n2C)cc1 [Example 473, methyl 3-(4-(6-(N-((1S,4r)-4-((S)-3-cyclopropylmorpholine-4-carbonyl)cyclohexyl)sulfamoyl)-1-methyl-1H-indol-2-yl)phenyl)propanoate] | < 10 nM | 200 nM | > 33000 nM |
| C[C@@H]1CN(C(=O)[C@H]2CC[C@H](NS(=O)(=O)c3ccc4c(Cl)c(-c5ccccc5)[nH]c4c3)CC2)C[C@H](C)O1 [Example 477, 3-chloro-N-((1R,4r)-4-((2S,6R)-2,6-dimethylmorpholine-4-carbonyl)cyclohexyl)-2-phenyl-1H-indole-6-sulfonamide] | < 10 nM | 40 nM | 12000 nM |
| CCOc1ccc2cc(S(=O)(=O)N[C@H]3CC[C@H](C(=O)N[C@H](COC(=O)[C@@H](NC)C(C)C)c4ccccc4)CC3)ccc2n1 [Example 272, (S)-((S)-2-((1r,4S)-4-(2-ethoxyquinoline-6-sulfonamido)cyclohexanecarboxamido)-2-phenylethyl) 3-methyl-2-(methylamino)butanoate] | 175 nM | 14100 nM | > 16700 nM |
| O=C([C@H]1CC[C@H](NS(=O)(=O)c2ccc3c(Cl)c(-c4ccccc4)[nH]c3c2)CC1)N1CCOC[C@@H]1C1CC1 [Example 474, 3-chloro-N-((1S,4r)-4-((S)-3-cyclopropylmorpholine-4-carbonyl)cyclohexyl)-2-phenyl-1H-indole-6-sulfonamide] | < 10 nM | 29 nM | > 67000 nM |
| C[C@@H](NC(=O)[C@H]1CC[C@H](NS(=O)(=O)c2cnc3c(c2)N(C(=O)OCCOCc2ccccc2)CCN3)CC1)c1ccc(F)cc1 [Example 208, 2-(benzyloxy)ethyl 7-(N-((1R,4r)-4-((R)-1-(4-fluorophenyl)ethylcarbamoyl)cyclohexyl)sulfamoyl)-3,4-dihydropyrido[3,2-b]pyrazine-1(2H)-carboxylate] | 595 nM | 4740 nM | > 16700 nM |
| Cn1c(C2CC2)cc2ccc(S(=O)(=O)N[C@H]3CC[C@H](C(=O)NC(C4CC4)C4CC4)CC3)cc21 [Example 459, (1r,4r)-4-(2-cyclopropyl-1-methyl-1H-indole-6-sulfonamido)-N-(dicyclopropylmethyl)cyclohexanecarboxamide] | 630 nM | 210 nM | 26000 nM |
| C[C@H]1COCCN1C(=O)[C@H]1CC[C@H](NS(=O)(=O)c2ccc3c(Cl)c(C4CC4)n(C)c3c2)CC1 [Example 426, 3-chloro-2-cyclopropyl-1-methyl-N-((1S,4r)-4-((S)-3-methylmorpholine-4-carbonyl)cyclohexyl)-1H-indole-6-sulfonamide] | 55 nM | – | – |
| C[C@@H](NC(=O)[C@H]1CC[C@H](NS(=O)(=O)c2cnc3c(c2)N(C)C2CCCCC2N3C)CC1)c1ccc(F)cc1 (stereo partly drawn) [Example 134, (1r,4R)-4-(5,10-dimethyl-5,5a,6,7,8,9,9a,10-octahydropyrido[3,2-b]quinoxaline-3-sulfonamido)-N((R)-1-(4-fluorophenyl)ethyl)cyclohexanecarboxamide] | 28 nM | – | – |
| C[C@@H](NC(=O)[C@H]1CC[C@H](NS(=O)(=O)c2cnc3c(c2)N(C)CCN3)CC1)c1ccc(F)cc1 [Example 130, (1r,4R)-N-((R)-1-(4-fluorophenyl)ethyl)-4-(1-methyl-1,2,3,4-tetrahydropyrido[3,2-b]pyrazine-7-sulfonamido)cyclohexanecarboxamide] | 59 nM | – | – |
| Cn1c(C2CC2)c(C#N)c2ccc(S(=O)(=O)N[C@H]3CC[C@H](C(=O)N4CCN[C@@H](C(F)(F)F)C4)CC3)cc21 [Example 380, 3-cyano-2-cyclopropyl-1-methyl-N-((1R,4r)-4-((R)-3-(trifluoromethyl)piperazine-1-carbonyl)cyclohexyl)-1H-indole-6-sulfonamide] | 75 nM | – | – |
| CC(C)OC(=O)c1ccc(NS(=O)(=O)c2ccc3nc(-c4ccc(N(C)C)cc4)[nH]c3c2)cc1 [Example 508, isopropyl 4-(2-(4-(dimethylamino)phenyl)-1H-benzo[d]imidazole-6-sulfonamido)benzoate] | 1380 nM | – | – |
| CCN(C)C(=O)[C@H]1CC[C@H](NS(=O)(=O)c2ccc3cc(-c4ccc(CO)cc4)n(C)c3c2)CC1 [Example 349, (1r,4r)-N-ethyl-4-(2-(4-(hydroxymethyl)phenyl)-1-methyl-1H-indole-6-sulfonamido)-N-methylcyclohexanecarboxamide] | 100 nM | – | – |
| Cn1c(C2CC2)cc2ccc(S(=O)(=O)N[C@H]3CC[C@H](C(=O)N[C@@H](CO)C4CC4)CC3)cc21 [Example 446, (1r,4R)-4-(2-cyclopropyl-1-methyl-1H-indole-6-sulfonamido)-N-((R)-1-cyclopropyl-2-hydroxyethyl)cyclohexanecarboxamide] | 365 nM | – | – |
| CC(C)OC(=O)c1ccc(NS(=O)(=O)c2ccc3[nH]c(Nc4ccccc4F)nc3c2)cc1 [Example 546, isopropyl 4-(2-(2-fluorophenylamino)-1H-benzo[d]imidazole-5-sulfonamido)benzoate] | 845 nM | – | – |
| C[C@@H](NC(=O)[C@H]1CC[C@@H](NS(=O)(=O)c2cnc3c(c2)NCC(C)(C)CN3)CC1)c1ccc(F)cc1 [Example 154, (1s,4S)-4-(3,3-dimethyl-2,3,4,5-tetrahydro-1H-pyrido[2,3-b][1,4]diazepine-8-sulfonamido)-N-((R)-1-(4-fluorophenyl)ethyl)cyclohexanecarboxamide] | 1990 nM | – | – |
| CC(C)(C)c1nnc([C@H]2CC[C@H](NS(=O)(=O)c3ccc4[nH]c(-c5ccccc5)nc4c3)CC2)o1 [Example 585, N-((1r,4r)-4-(5-tert-butyl-1,3,4-oxadiazol-2-yl)cyclohexyl)-2-phenyl-1H-benzo[d]imidazole-5-sulfonamide] | 781 nM | – | – |
| CC(C)OC(=O)c1ccc(NS(=O)(=O)c2ccc3nc(-c4ccc(Oc5ccccc5)cc4)[nH]c3c2)cc1 [Example 507, isopropyl 4-(2-(4-phenoxyphenyl)-1H-benzo[d]imidazole-6-sulfonamido)benzoate] | 22100 nM | – | – |
| Cn1c(-c2ccc(F)cc2)cc2ccc(S(=O)(=O)N[C@H]3CC[C@H](C(=O)N4CCCC(C(=O)O)C4)CC3)cc21 (stereo partly drawn) [Example 346, 1-((1r,4r)-4-(2-(4-fluorophenyl)-1-methyl-1H-indole-6-sulfonamido)cyclohexanecarbonyl)piperidine-3-carboxylic acid] | 265 nM | – | – |
